According to patent publication US20090162457A1, “RESVERATROL AND/OR GRAPE LEAF EXTRACT AS I. A. ENDURANCE IMPROVER, ANTI-AGING AGENT, MUSCLE STRENGTH IMPROVER” (KAO CORPORATION, priority 2005, published 2009):

Key:
Format in all cases: in vivo
[1] = test system: Balb/c male mice; experiment: Mice maximal swimming time measurement in an adjustable-current swimming pool (endurance-improving/anti-fatigue effect); settings: Test 1; for Maximal swimming time: flow rate 7 L/min
Protocol: An endurance-improving/anti-fatigue effect was evaluated in accordance with the mice maximal swimming time measurement (Reference: Am. J. Physiol. Regul. Integr. Comp. Physiol., 288, 708-715 (2005)) in an adjustable-current swimming pool. The pool used for this test made of transparent acryl (90 cm long×45 cm wide×45 cm deep) was filled with water to the depth of 38 cm and maintained at 34° C. by a heater. The current in the pool was generated by circulating water with a pump (“C-P60H”, product of Hitachi, Ltd.). The flow rate was regulated by opening and closing of a valve of a water flow meter (product of Tokyo Flow Meter Kenkyujo) connected to the pump. The flow rate was monitored by a current meter (“SV-101-25S”, product of Sanko Seimitsu Kogyo). As a test animal, five-week-old Balb/c male mice (Charles River) were used. They were habituated by preliminary rearing for 1 week under a predetermined rearing environment (23±2° C., light period: from 7:00 am to 7:00 pm). For the next one week, training was performed three times a week in order to accustom the mice to swimming (swimming for 30 minutes at a flow rate of 5 L/min on Day 1, and for 30 minutes at a flow rate of 6 L/min on Day 3 and Day 5). […] To prevent a difference between groups in the maximal swimming time, mice were classified into two groups each consisting of 8 mice, that is, a test diet group and control diet group. During this term, maximal swimming time measurement (7 L/min) and training (6 L/min, 30 minutes) were each conducted once a week.

[2] = test system: SAM-P1 male mice (senescence accelerated mice); experiment: Maximal running time on treadmill (anti-aging effect, endurance)
Protocol: (§1) After preliminary individual rearing of 13-week-old SAM-P1 male mice (senescence accelerated mice) and SAM-R1 male mice (ordinarily aged mice) for 5 weeks, they were habituated to treadmill running and their maximal running time was measured. The measurement was started after the mice were kept sedentary in the treadmill to accustom them to the environment. The belt speed was started at 10 m/min. The mice were caused to run for 5 minutes on the belt having a speed of 10 m/min, 5 minutes at a speed of 15 m/min, 60 minutes at a speed of […], 60 minutes at a speed of 22 m/min, 60 minutes at a speed of 24 m/min, 60 minutes at a speed of 26 m/min and then at a speed of 28 m/min. […] To avoid a difference in the maximal running time between strains, the mice were divided into three groups, that is, SAM-R1 control group, SAM-P1 control group, and SAM-P1 resveratrol group (each group consisting of 5 to 8 mice). Each mouse was exercised at 15 m/min for 30 minutes three times a week during the period of experiment. The maximal running time of each group was measured after rearing for 8 weeks. In addition, as energy metabolism at rest, oxygen consumption of each group was measured by breath analysis after rearing for 9 weeks. For this analysis, “Oxymax system” (product of Columbus Instruments) equipped with 8 chambers was used. […] From their weights, total muscle weight was determined.

[3] = test system: SAM-P1 male mice (senescence accelerated mice); experiment: Energy metabolism at rest: oxygen consumption by breath analysis (Oxymax system)
Protocol: as §1

[4] = test system: SAM-P1 male mice (senescence accelerated mice); experiment: Total muscle weight (gastrocnemius, soleus, plantaris) per body weight
Protocol: as §1

[5] = test system: SAM-P1 male mice (senescence accelerated mice); experiment: Maximum muscle strength of extensor digitorum longus muscle under electrical stimulation
From the text: After the preliminary individual rearing of 13-week-old SAM-P1 male mice (senescence accelerated mice) and SAM-R1 male mice (ordinarily aged mice) for 5 weeks, they were habituated to treadmill running. Then, they were divided into SAM-R1 control group, SAM-P1 control group, SAM-P1 exercise group, SAM-P1 resveratrol group/exercise (each group consisting of 5 mice) They were reared for 13 weeks on a diet prepared in accordance with the formulation shown in Table 9. Exercise at 15 m/min was imposed to each mouse of the exercise group for 30 minutes three times a week during the period of experiment. After rearing for 13 weeks, the mice were sacrificed for dissection. Their extensor digitorum longus muscle was fixed to a transducer (“FORT100”, product of World Precision Instruments, Inc.) in a Krebs solution (aeration condition: 95% oxygen, 5% carbon dioxide) of 37° C. and then, electrically stimulated (at 140 Hz for 0.5 msec), whereby the maximum muscle strength was measured.

`Oc1ccc(C=Cc2cc(O)cc(O)c2)cc1` [Resveratrol, 3,4′,5-trihydroxy-stilbene] was tested, and the Maximal swimming time ([1]; after rearing for 10 weeks on diet with 0.2 mass % resveratrol, control diet 31.15 ± 2.57) was 44.80 ± 4.56 min, the “Maximal swimming time compared with control diet group (in words)” value ([1]; after rearing for 10 weeks, 0.2 mass % resveratrol in diet) was “significantly extended the maximal swimming time” and the Maximal swimming time ([1]; before rearing (baseline), Balb/c male mice) was 28.50 ± 1.75 min. The Maximal running time ([2]; after rearing for 8 weeks on feed with 0.2% resveratrol, SAM-P1 control 100.0 ± 5.8) was 141.3 ± 19.7 min, the “Maximal running time compared with SAM-P1 control group (in words)” value ([2]; after rearing for 8 weeks, 0.2% resveratrol in feed) was “significantly long compared with that of the SAM-P1 control group” and the “Oxygen consumption (average for 24 hours)” value ([3]; after rearing for 9 weeks on feed with 0.2% resveratrol, SAM-P1 control 46.9 ± 1.3) was 57.1 ± 4.3 mL/min/kg. For the same compound, the “Oxygen consumption compared with SAM-P1 control group (in words)” value ([3]; after rearing for 9 weeks, 0.2% resveratrol in feed) was “significantly high compared with that of the SAM-P1 control group”, the “Relative muscle weight (muscle weight per body weight)” value ([4]; after rearing for 10 weeks on feed with 0.2% resveratrol, SAM-P1 control 0.64 ± 0.02) was 0.81 ± 0.07% and the “Muscle weight compared with SAM-P1 control group (in words)” value ([4]; after rearing for 10 weeks, 0.2% resveratrol in feed) was “significantly large compared with that of the SAM-P1 control group”. For the same compound, the “Maximum muscle strength of extensor digitorum longus muscle” value ([5]; resveratrol (0.2% in feed) plus exercise, reared for 10 weeks per table title (13 weeks per text), SAM-P1 control 9.8 ± 0.3, SAM-P1 exercise 13.0 ± 1.8) was 15.0 ± 1.8 g and the “Maximum muscle strength compared with SAM-P1 control group (in words)” value ([5]; resveratrol-containing feed (0.2%) plus exercise) was “significantly high”.
